For 1 molecule, ED50, SDL and IC50 results are on record in ChEMBL document CHEMBL1125697, “Synthesis and pharmacological examination of 1-(3-methoxy-4-methylphenyl)-2-aminopropane and 5-methoxy-6-methyl-2-aminoindan: similarities to 3,4-(methylenedioxy)methamphetamine (MDMA)” (J Med Chem, 1991).

What all share (type): functional
Assay [1] relates to Rattus norvegicus. The experiment in a line: Effective dose was evaluated for drug discrimination in I-trained rats, when given at a dose of 0.25 mg/kg. As to conditions: Rattus norvegicus; read-out: ED50.
Assay [2] has as its system Rattus norvegicus. The experiment in a line: Percentage of non disrupted rats that selected the drug lever, when given at a dose of 0.5 mg/kg.
Assay [3] deals with Rattus norvegicus. Nature of the assay: Effective dose was evaluated for drug discrimination in I-trained rats, when given at a dose of 2.32 micro mol/kg.
Assay [4] has as its system Rattus norvegicus. The experiment in a line: Percentage of non disrupted rats that selected the drug lever, when given at a dose of 1.00 mg/kg.
Assay [5] concerns Rattus norvegicus. The experiment in a line: Percentage of non disrupted rats that selected the drug lever, when given at a dose of 0.25 mg/kg.
Assay [6] concerns Rattus norvegicus. The experiment in a line: Effective dose was evaluated for drug discrimination in I-trained rats, when given at a dose of 1.16 micro mol/kg.
The species named for assay [7] is Rattus norvegicus. The experiment in a line: Compound was evaluated for the uptake inhibition of [3H]-5-HT in rats.
The subject of assay [8] is Rattus norvegicus. Nature of the assay: Effective dose was evaluated for drug discrimination in I-trained rats, when given at a dose of 0.5 mg/kg.
The subject of assay [9] is Rattus norvegicus. The experiment in a line: Percentage of non disrupted rats that selected the drug lever, when given at a dose of 1.50 mg/kg. As to conditions: dose 1.5 mg/kg.

On to `COc1cc(C[C@@H](C)N)ccc1C`, for which the ED50 in assay [1] was found to be 0.46 mg/kg; in assay [3] it was 2.12 µmol/kg; in assay [6], 2.12 µmol/kg; in assay [8], 0.46 mg/kg. In addition, the SDL was determined as 38% in [2], 75% in assay [4], 33% in assay [5] and 100% in [9]. In [7], this molecule showed a half-inhibitory concentration (IC50) of 200 nM.

As a reminder, the ED50 is the midpoint of the dose-response relation. A word on the IC50: it is the concentration that gives 50% inhibition. A low value points to higher potency.
